{"source": "paper PMC5107945", "about": "“Abscinazole-E3M, a practical inhibitor of abscisic acid 8′-hydroxylase for improving drought tolerance” (Scientific Reports, 2016)", "key": {"[1]": {"biological_target": "T1, Arabidopsis recombinant CYP707A3 (ABA 8′-hydroxylase) (Arabidopsis thaliana, UniProt Q9FH76)", "T1 construct": "made in house; host or cells: Escherichia coli (microsomal/membrane fraction)", "T1 sequence (Q9FH76 1-463)": "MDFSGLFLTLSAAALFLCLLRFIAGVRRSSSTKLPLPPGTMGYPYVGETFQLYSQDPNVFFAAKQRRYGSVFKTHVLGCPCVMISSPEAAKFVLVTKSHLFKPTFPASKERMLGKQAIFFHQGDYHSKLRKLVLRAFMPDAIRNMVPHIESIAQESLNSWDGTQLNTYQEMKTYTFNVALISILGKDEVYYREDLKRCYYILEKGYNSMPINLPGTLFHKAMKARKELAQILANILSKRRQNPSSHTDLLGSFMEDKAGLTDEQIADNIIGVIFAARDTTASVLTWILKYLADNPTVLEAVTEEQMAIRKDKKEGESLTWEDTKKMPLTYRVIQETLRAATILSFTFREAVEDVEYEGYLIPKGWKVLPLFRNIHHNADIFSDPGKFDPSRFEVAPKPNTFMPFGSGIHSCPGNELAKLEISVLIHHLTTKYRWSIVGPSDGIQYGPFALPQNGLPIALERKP", "assay": "CYP707A3 inhibition assay (decrease of enzymatic product PA)", "type": "biochemical", "conditions": "Arabidopsis recombinant CYP707A3 expressed in E. coli", "description": "The inhibitory activities of Abz-T compounds against ABA 8′-hydroxylase were examined using recombinant Arabidopsis CYP707A3 co-expressed with Arabidopsis P-450 reductase (ATR1) in Escherichia coli[22]. The activity levels were evaluated based on the decrease in the amount of the enzymatic product, PA.\nReactions were initiated by adding NADPH, stopped by the addition of 25 μL of 1 M NaOH and then acidified with 50 μL of 1 M HCl. Reaction products were extracted by loading the mixture onto an Oasis HLB cartridge (1 mL, 30 mg; Waters Corp., Milford, MA, USA) and were washed with 1 mL of 10% MeOH in H2O (v/v) containing 1% acetic acid (AcOH, v/v). The enzyme products were then eluted with 1 mL of MeOH containing 1% AcOH, and the eluate was concentrated in vacuo. Each dried sample was then dissolved in 50 μL of MeOH, and a 20-μL volume was subjected to HPLC (Prominence; Shimadzu Corp., Kyoto, Japan). HPLC conditions were as follows: the octadecylsilyl column was composed of Hydrosphere C18 (150 × 6.0 mm, YMC Co., Ltd., Kyoto, Japan), and the solvent comprised 17% acetonitrile (MeCN) in H2O containing 0.05% AcOH (v/v). The flow rate was 1.0 mL min^−1, and detection was at 254 nm. Enzyme activity was evaluated by determining the amount of PA in control experiments prior to taking each set of measurements. The inhibition constants were determined using the Enzyme Kinetics module of the SigmaPlot 10 software (Systat Software, Inc., San Jose, CA, USA) after determining the inhibition mode by plotting the reaction velocity in the presence and absence of the inhibitor on a double-reciprocal plot. The inhibition ratio was defined as [(A − B)/A] × 100, where A = the amount of PA when the inhibitor was absent from the reaction mixture (control), and B = the amount of PA when the inhibitor was present. All of the tests were conducted at least three times."}, "[2]": {"test_system": "Arabidopsis seed germination", "assay": "Arabidopsis seed germination assay", "type": "in vivo, Arabidopsis (Columbia accession)", "description": "Figure 3 Effects of (−)-Abz-T compounds on Arabidopsis seed germination compared with that of (−)-Abz-E2B. Seed germination rates in the presence of 0.1 μM ABA and the indicated concentrations of azole inhibitors at a time when the germination rate of plants treated only with ABA was 80% (n = 3; error bars represent s.d.). Compound 6 is also referred to as Abz-E3M.\nFor the Arabidopsis seed germination assay, 25 to 40 seeds (Columbia accession) were sterilised successively by soaking in 70% EtOH for 30 min and reagent-grade EtOH for 1 min. They were then soaked in distilled water and incubated in the darkness at 5 °C for 3 d. The stratified seeds were then soaked in 100 μL of a test medium liquid agar in 96-well plates and allowed to germinate under continuous illumination at 22 or 30 °C. In these assays, we used the classic definition of radical emergence for seed germination. All of the assays were conducted at least three times."}, "[3]": {"test_system": "ABA-responsive genes MAPKKK18, RD29A and RD29B", "assay": "qRT-PCR of ABA-responsive genes in Arabidopsis seedlings", "type": "in vivo, Arabidopsis (Columbia accession)", "conditions": "10-day-old seedlings, 6 h", "description": "Figure 5 Effects of (−)-Abz-E3M on the expression levels of Arabidopsis ABA-responsive genes. Expression of MAPKKK18, RD29A and RD29B after treatment with (−)-Abz-E2B or (−)-Abz-E3M in the absence or presence of 0.25 μM ABA (n = 4, error bar represents s.d.).\nArabidopsis (Columbia accession) were grown for 10 d on agar plates containing 1/2 Murashige and Skoog (MS) and 0.5% sucrose at 22 °C under an 18/6-h light/dark cycle. Seedlings were incubated in the chemical solutions for 6 h. Total RNA from seedlings was isolated using the Plant RNA purification reagent (Thermo Fisher Scientific) according to the manufacturer’s instructions. cDNA was synthesised using the QuantiTec reverse transcription kit (Qiagen). Maize (cv. Gold rush, Sakata Seed Corporation) seedlings were grown in 100-mL pots containing 75 g of moist soil in a glass house. The root parts of the maize seedlings were washed with tap water and dipped in 100 μM (−)-Abz-E3M chemical solution containing 0.05% Tween-20 overnight. Total RNA from maize seedlings was isolated using an RNeasy mini kit (Qiagen) with the ‘on-column’ DNA digestion method. cDNA was synthesised using a High-Capacity cDNA Reverse Transcription Kit (Thermo Fisher Scientific). Real-time PCR using SYBR Premix Ex Taq™ II (Takara) was performed with Step One-Plus (Thermo Fisher Scientific). The primer sets are shown in Supplemental Table S1."}, "[4]": {"test_system": "ABA catabolism", "conditions": "in vivo", "experimental": "For ABA measurements from Arabidopsis seedlings, samples (1–20 mg dry weight) were ground with beads in 2-mL tubes and homogenised in 1 mL 80% (v/v) MeCN containing 1% AcOH (v/v) with d6-ABA. After extracting for 16 h at 4 °C, samples were centrifuged at 4 °C for 10 min at 3,000× g, and supernatants were collected. Samples were re-extracted twice with 1 mL 80% MeCN at 4 °C for 30 min, and the supernatants were collected after centrifugation. MeCN was removed with nitrogen gas, and the acidified water extracts were loaded into 1cc Oasis HLB cartridges. After washing with water containing 1% AcOH, plant ABA was eluted with 80% MeCN containing 1% AcOH. MeCN was removed, and samples were loaded into 1cc Bond Elute DEA cartridges (Agilent). After washing with MeOH, the ABA was eluted using MeOH containing 1% AcOH. The fractions containing ABA were dried, dissolved in water containing 1% AcOH, and analysed by LC–MS/MS as described previously[35]. The LC conditions for Arabidopsis samples were as follows: solvent A, water containing 0.01% (v/v) acetic acid; solvent B, MeCN containing 0.05% (v/v) acetic acid; and linear gradient, 3 to 40% solvent B over 9 min. Experiments were performed in triplicate, and the results were averaged.\n25 µ M (−)-Abz-E3M (n = 3,error bar represents s.d.).Eleven-day-old seedlings of wild-type (Col accession) […]"}}}
{"substance": "abscinazole-E3M [(−)-6]", "values": [{"measurement": "IC50", "setting": "[1]; 5 μM ABA as substrate, read-out: CYP707A IC50", "result": 64, "unit": "nM"}, {"measurement": "Ki", "setting": "[1]; ABA 1–64 μM, read-out: CYP707A KI", "result": 35, "unit": "nM"}, {"measurement": "Effect on Arabidopsis seed germination under high temperature conditions", "setting": "[2]; 30 °C, thermoinhibition, Fig. S3", "result": "inhibited Arabidopsis seed germination"}, {"measurement": "Potency in enhancing ABA's effects on seed germination relative to (−)-Abz-E2B", "setting": "[2]; co-treatment with ABA (0.1 μM)", "result": 10, "unit": "fold"}, {"measurement": "Effect on ABA's inhibition of Arabidopsis seed germination", "setting": "[2]; in the presence of 0.1 μM ABA, Fig. 3", "result": "enhanced the effects of ABA"}, {"measurement": "Expression of ABA-responsive genes MAPKKK18, RD29A and RD29B", "setting": "[3]; absence of exogenous ABA", "result": "did not induce the expression"}, {"measurement": "Expression of ABA-responsive genes MAPKKK18, RD29A and RD29B", "setting": "[3]; co-treatment with 0.25 μM ABA", "result": "enhanced the expression levels of ABA-responsive genes"}, {"measurement": "ABA catabolism / ABA accumulation in plants", "setting": "[4]", "result": "inhibited ABA catabolism and increased ABA accumulation in plants"}]}
